SMILES strings stand for the structures. Like-named read-outs stand apart in the source and are kept apart here.

Assay in all cases: SelectScreen Kinase Profiling, single point inhibition and IC50 for off-target kinases
Holding throughout (format): biochemical

Experiment [1] deals with off-target kinases (Homo sapiens, UniProt P04049, Y340D/Y341D).
The target in experiment [2] is off-target kinases (Homo sapiens, UniProt P09619). The conditions noted are these: PDGFRB (PDGFR beta), ZLYTE, ATP Km app.
Sequence of off-target kinases (Homo sapiens, UniProt P09619) (P09619 33-1106): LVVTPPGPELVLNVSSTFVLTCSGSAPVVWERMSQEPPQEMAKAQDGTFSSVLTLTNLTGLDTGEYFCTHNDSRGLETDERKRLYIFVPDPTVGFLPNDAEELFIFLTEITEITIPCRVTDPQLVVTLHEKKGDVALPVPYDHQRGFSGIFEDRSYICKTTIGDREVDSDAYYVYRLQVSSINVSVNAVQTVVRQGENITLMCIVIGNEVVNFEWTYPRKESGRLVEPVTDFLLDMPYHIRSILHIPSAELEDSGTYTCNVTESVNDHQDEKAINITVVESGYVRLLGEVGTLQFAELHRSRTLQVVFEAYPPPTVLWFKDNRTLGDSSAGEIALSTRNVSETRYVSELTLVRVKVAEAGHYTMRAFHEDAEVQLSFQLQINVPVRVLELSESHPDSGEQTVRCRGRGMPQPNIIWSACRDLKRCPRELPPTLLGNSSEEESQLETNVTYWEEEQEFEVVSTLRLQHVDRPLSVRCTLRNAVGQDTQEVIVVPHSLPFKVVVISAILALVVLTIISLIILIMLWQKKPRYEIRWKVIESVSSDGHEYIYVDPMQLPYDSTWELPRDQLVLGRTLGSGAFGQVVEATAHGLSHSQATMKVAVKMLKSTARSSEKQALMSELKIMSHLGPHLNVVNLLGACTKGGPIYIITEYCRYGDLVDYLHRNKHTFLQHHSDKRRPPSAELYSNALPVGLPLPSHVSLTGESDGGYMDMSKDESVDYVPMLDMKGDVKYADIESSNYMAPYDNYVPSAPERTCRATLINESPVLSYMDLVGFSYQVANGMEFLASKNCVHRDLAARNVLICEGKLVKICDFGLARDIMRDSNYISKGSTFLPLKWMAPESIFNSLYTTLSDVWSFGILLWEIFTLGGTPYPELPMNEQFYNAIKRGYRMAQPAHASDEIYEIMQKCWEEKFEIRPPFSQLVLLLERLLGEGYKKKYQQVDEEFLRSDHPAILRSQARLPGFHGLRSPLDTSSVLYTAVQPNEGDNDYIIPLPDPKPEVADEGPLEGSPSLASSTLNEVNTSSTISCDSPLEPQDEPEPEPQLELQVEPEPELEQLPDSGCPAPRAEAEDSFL
In experiment [3] the target is off-target kinases (Homo sapiens, UniProt P22612). Conditions: PRKACG (PRKAC gamma), LanthaScreen Binding. In general terms: TR-FRET usually uses a lanthanide donor and a delayed reading to cut background.
Sequence of off-target kinases (Homo sapiens, UniProt P22612) (P22612 whole entry): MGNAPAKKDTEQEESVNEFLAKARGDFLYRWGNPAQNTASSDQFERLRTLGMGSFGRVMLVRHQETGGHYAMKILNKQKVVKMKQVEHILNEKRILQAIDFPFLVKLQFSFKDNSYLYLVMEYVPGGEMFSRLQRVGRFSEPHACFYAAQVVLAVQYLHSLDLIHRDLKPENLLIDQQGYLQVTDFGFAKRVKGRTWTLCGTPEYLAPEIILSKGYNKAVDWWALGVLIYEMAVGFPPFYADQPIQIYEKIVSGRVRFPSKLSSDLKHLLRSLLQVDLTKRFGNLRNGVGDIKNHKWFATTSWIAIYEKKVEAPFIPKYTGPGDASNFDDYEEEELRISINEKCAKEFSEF
Experiment [4] concerns the target off-target kinases (Homo sapiens, UniProt P35916). The conditions noted are these: FLT4 (VEGFR3), ATP Km app, ZLYTE.
For experiment [5], the target named is off-target kinases (Homo sapiens, UniProt Q13554). The conditions noted are these: CAMK2B (CaMKII beta), ZLYTE, ATP Km app.
Sequence of off-target kinases (Homo sapiens, UniProt Q13554) (Q13554 whole entry): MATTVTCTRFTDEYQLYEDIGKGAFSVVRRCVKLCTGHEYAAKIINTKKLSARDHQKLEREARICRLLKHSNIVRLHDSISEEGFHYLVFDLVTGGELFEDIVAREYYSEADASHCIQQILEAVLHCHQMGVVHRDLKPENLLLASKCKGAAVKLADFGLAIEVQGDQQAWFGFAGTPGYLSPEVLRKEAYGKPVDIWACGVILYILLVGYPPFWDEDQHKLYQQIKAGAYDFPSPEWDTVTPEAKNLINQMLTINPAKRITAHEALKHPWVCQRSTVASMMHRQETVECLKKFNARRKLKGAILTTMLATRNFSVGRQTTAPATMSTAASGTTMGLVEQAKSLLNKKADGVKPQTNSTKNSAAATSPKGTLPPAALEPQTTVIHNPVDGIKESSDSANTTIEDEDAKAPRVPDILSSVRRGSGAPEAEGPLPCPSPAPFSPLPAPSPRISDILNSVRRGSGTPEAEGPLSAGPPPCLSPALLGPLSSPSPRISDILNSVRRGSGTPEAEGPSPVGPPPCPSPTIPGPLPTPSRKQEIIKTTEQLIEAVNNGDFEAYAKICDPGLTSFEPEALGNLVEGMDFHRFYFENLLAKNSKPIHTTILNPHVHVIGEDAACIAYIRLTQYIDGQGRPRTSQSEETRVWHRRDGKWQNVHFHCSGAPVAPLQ
In experiment [6] the target is off-target kinases (Homo sapiens, UniProt Q96GD4). Conditions: AURKB (Aurora B), ATP Km app, ZLYTE.
Sequence of off-target kinases (Homo sapiens, UniProt Q96GD4) (Q96GD4 whole entry): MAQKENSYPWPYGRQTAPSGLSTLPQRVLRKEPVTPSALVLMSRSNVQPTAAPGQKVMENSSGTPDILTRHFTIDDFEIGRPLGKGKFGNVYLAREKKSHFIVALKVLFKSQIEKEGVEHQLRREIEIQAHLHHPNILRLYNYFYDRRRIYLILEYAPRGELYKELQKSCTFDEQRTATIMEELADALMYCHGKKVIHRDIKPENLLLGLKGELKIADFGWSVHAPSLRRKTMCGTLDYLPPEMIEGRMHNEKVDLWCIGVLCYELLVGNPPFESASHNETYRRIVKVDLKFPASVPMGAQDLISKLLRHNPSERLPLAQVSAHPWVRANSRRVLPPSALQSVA
Experiment [7] concerns the target off-target kinases (Homo sapiens, UniProt Q9BWU1). Conditions: CDK11 (Inactive); Cmpd1 1000 μM; LanthaScreen Binding.

Sequence of off-target kinases (Homo sapiens, UniProt P04049, Y340D/Y341D) (P04049 whole entry Y340D/Y341D): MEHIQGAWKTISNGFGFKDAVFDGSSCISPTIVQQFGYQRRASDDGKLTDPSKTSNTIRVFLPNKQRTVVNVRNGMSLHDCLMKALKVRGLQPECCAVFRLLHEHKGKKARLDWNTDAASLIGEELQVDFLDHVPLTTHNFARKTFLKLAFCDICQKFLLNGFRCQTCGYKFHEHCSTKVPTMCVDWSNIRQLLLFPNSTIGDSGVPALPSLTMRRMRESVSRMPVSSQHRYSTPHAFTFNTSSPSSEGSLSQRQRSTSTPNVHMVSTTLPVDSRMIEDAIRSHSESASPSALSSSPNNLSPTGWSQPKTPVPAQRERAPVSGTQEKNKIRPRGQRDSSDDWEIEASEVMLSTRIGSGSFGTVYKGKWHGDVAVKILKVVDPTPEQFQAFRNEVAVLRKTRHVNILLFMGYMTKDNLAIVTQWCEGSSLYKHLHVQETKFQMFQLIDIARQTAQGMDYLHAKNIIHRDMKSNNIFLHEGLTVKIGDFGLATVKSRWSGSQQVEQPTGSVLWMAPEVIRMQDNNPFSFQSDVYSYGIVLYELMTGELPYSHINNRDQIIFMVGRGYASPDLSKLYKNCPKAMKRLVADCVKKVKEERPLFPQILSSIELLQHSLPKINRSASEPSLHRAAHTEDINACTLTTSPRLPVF
Sequence of off-target kinases (Homo sapiens, UniProt P35916) (P35916 25-1363): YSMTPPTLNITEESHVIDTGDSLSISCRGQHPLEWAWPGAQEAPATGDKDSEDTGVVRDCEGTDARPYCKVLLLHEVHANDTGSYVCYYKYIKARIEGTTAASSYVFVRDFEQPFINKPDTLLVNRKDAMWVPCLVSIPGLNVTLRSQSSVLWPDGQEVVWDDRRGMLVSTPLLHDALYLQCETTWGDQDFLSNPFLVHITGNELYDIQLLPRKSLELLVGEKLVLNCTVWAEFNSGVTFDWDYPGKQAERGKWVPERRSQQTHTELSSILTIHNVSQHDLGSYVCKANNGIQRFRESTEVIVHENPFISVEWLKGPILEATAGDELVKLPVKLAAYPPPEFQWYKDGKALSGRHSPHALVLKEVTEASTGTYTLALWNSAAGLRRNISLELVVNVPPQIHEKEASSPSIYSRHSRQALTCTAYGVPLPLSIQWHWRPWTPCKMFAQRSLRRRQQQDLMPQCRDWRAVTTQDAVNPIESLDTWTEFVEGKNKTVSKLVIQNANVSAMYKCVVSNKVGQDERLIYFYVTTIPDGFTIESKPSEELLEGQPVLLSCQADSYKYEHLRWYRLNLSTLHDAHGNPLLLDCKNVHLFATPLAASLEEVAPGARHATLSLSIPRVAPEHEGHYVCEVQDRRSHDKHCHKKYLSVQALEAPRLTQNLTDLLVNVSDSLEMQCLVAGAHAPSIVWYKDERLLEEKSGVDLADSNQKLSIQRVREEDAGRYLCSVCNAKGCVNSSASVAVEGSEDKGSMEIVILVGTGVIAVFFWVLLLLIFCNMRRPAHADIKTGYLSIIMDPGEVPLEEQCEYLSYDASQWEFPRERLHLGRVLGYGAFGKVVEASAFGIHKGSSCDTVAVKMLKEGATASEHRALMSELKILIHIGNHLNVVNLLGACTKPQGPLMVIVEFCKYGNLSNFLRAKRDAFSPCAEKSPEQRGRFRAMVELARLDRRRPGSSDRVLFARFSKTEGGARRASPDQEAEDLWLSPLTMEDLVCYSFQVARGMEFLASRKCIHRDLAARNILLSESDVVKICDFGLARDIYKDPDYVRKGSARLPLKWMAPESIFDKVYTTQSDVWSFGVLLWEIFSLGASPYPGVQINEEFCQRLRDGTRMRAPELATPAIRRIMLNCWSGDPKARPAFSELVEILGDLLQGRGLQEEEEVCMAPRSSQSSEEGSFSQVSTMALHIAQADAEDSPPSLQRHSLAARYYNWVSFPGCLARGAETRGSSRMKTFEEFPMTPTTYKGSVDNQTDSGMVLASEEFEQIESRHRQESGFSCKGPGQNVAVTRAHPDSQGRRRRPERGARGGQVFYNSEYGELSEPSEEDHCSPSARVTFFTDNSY
Sequence of off-target kinases (Homo sapiens, UniProt Q9BWU1) (Q9BWU1 whole entry): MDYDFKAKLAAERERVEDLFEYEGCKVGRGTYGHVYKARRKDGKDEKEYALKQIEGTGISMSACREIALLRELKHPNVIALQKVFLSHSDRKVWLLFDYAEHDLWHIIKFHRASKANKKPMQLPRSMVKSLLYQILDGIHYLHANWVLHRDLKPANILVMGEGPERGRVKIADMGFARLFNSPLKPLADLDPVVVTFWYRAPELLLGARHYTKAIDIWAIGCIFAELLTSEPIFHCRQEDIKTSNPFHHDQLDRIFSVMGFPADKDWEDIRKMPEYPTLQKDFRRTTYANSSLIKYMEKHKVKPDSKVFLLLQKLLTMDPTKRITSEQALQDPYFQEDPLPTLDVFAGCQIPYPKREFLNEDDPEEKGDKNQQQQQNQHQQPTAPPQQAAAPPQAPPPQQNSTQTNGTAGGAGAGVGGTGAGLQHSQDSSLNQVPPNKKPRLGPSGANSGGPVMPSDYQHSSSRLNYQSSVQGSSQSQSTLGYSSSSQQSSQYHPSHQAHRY

By inhibition is commonly meant how much of the control response was suppressed. For `N#Cc1cc(-c2ncnc(Nc3ccc(N4CCN(C5COC5)CC4)cc3)n2)ccc1OC1CCOCC1` [Compound 1, 5-(4-((4-(4-(oxetan-3-yl)piperazin-1-yl)phenyl)amino)-1,3,5-triazin-2-yl)-2-((tetrahydro-2H-pyran-4-yl)oxy)benzonitrile], the inhibition amounted to 5% at off-target kinases [1] (RAF1 (cRAF) Y340D Y341D (mutant), ZLYTE, ATP 100, read-out: % Inhibition 1); 3% on off-target kinases [1] (RAF1 (cRAF) Y340D Y341D (mutant), ZLYTE, ATP 100, read-out: % Inhibition 2); 4% on off-target kinases [1] (RAF1 (cRAF) Y340D Y341D (mutant), ZLYTE, ATP 100, read-out: % Inhibition Avg); 15% at off-target kinases [1] (RAF1 (cRAF) Y340D Y341D, mutant y, LanthaScreen Binding, read-out: % Inhibition 1); 20% at off-target kinases [1] (RAF1 (cRAF) Y340D Y341D, mutant y, LanthaScreen Binding, read-out: % Inhibition 2); 18% at off-target kinases [1] (RAF1 (cRAF) Y340D Y341D, mutant y, LanthaScreen Binding, read-out: % Inhibition Avg). Further, the inhibition on off-target kinases [2] (read-out: % Inhibition 1) is 34%; on off-target kinases [2] (read-out: % Inhibition 2), 30%; at off-target kinases [2] (read-out: % Inhibition Avg), 32%; on off-target kinases [3] (read-out: % Inhibition 1), 28%; on off-target kinases [3] (read-out: % Inhibition 2), 19%; at off-target kinases [3] (read-out: % Inhibition Avg), 24%. Further, the inhibition on off-target kinases [4] (read-out: % Inhibition 1) was found to be 64%; on off-target kinases [4] (read-out: % Inhibition 2) it was 60%; at off-target kinases [4] (read-out: % Inhibition Avg), 62%; at off-target kinases [5] (read-out: % Inhibition 1), 11%; on off-target kinases [5] (read-out: % Inhibition 2), 8%; at off-target kinases [5] (read-out: % Inhibition Avg), 10%. Further, the inhibition was found to be 54% on off-target kinases [6] (read-out: % Inhibition 1), 48% on off-target kinases [6] (read-out: % Inhibition 2) and 51% at off-target kinases [6] (read-out: % Inhibition Avg). The “% Inhibition 1” value at off-target kinases [7] is reported as −1%. In addition, the “% Inhibition 2” value at off-target kinases [7] is listed as −7%. Besides, the “% Inhibition Avg” value on off-target kinases [7] is recorded as −4%.

For the origin of these results see US11572590B2, “Methods for evaluating tumor cell spheroids using 3D microfluidic cell culture device” (Dana-Farber Cancer Institute, Inc., priority 2017, dated 2023).
